Experimental data: patent US20250304973A1, “HIGH-AFFINITY THROMBIN APTAMERS AND METHODS OF USE” (Ayass Bioscience LLC, priority 2024, published 2025)
{CholTEG} = cholesterol attached through a triethylene glycol linker; {Sp18} = hexaethylene glycol (Sp18, PEG) spacer; {Sp9} = triethylene glycol (Sp9, TEG) spacer

What was measured:
human citrated plasma [1] = test: Activated partial thromboplastin time (APTT) assay in human citrated plasma; format: biochemical; details: for impact of modified aptamer on APTT: 2 uM modified aptamer, 1 hour room temperature plus 2-hour incubation, versus unmodified aptamer; for increase in APTT time: 2 uM, 2 h, versus untreated control
Description: (§1) 137. Sterile human blood in sodium citrate was purchased from the Rockland Immuno- chemicals, Inc (cat #R214-0050, Pottstown, PA 19464, USA). Plasma was prepared by centrifugation for 10 min at 2000×g. In vitro activity assays were performed on ACLTOP analyzer manufactured by Instrumentation Laboratory, which is a type of coagulation analyzer commonly used in clinical laboratories to measure clotting times and assess coagulation parameters. The ACLTOP analyzer is designed to perform a wide range of coagulation tests, including Factor II activity, prothrombin time (PT), activated partial thromboplastin time (APTT), fibrinogen, and other related assays. ACLTOP analyzer uses HemosIL reagents developed by Instrumentation Laboratory company (Bedford, MA, USA) to perform coagulation tests.
140. […] APTT time was measured using the synthetic phospholipid reagent SynthASIil for quantitative determination in human citrated plasma on an ACLTOP coagulation analyzer manufactured by Instrumentation Laboratory (Bed- ford, MA, USA).
(§2) 146. Modified aptamers chemically crosslinked with TAG, PEG, and cholesterol entities at the 3′ end, were purchased from IDT (Integrated DNA Technologies, Coralville, IA, USA). The impact of modified AYA1809002 and AYA1809004 aptamers on Factor II activity, PT, and APTT was evaluated using the same protocol as was used for the unmodified aptamers. Additionally, the potential for reversal was investigated using the respective reverse complement for each aptamer.

human citrated plasma [2] = test: Prothrombin time (PT) assay in human citrated plasma; format: biochemical; details: for impact of modified aptamer on PT: 2 uM modified aptamer, 1 hour room temperature plus 2-hour incubation, versus unmodified aptamer; for increase in PT time: 2 uM, 2 h, versus untreated control
Description: as §1, with “Plasma” for “137. Sterile human blood in sodium citrate was purchased from the Rockland Immuno- chemicals, Inc (cat #R214-0050, Pottstown, PA 19464, USA). Plasma”
PT time was measured using RecombiPlasTin 2G for quantitative determination in human citrated plasma of PT and Fibrinogen on an ACLTOP coagulation analyzer manufactured by Instrumentation Laboratory (Bedford, MA, USA). To assess the activity of the aptamers in a dose-dependent manner in whole blood, human blood samples were collected in citrate-treated tubes. The blood samples were then incubated at room temperature for 2 h in the absence or presence of varying concentrations of the thrombin aptamers. To measure the Prothrombin Time (PT) on the ACLTOP coagulation analyzer, plasma was obtained by centrifuging the samples at 1500×g for 10 min at 4° C. For the dose dependence study, concentrations of 1 uM, 2 uM, 3 uM, and 4 uM of AYA1809002 and AYA1809004 were utilized.
(§3) Modified aptamers chemically crosslinked with TAG, PEG, and cholesterol entities at the 3′ end, were purchased from IDT (Integrated DNA Technologies, Coralville, IA, USA). The impact of modified AYA1809002 and AYA1809004 aptamers on Factor II activity, PT, and APTT was evaluated using the same protocol as was used for the unmodified aptamers. Additionally, the potential for reversal was investigated using the respective reverse complement for each aptamer.

Factor II activity = target: T1, Factor II activity (Homo sapiens, UniProt P00734); test: Factor II activity assay in human citrated plasma (ACLTOP analyzer); format: biochemical; details: for impact of modified aptamer on Factor II activity: 2 uM modified aptamer, 1 hour room temperature plus 2-hour incubation, versus unmodified aptamer; for reduction in Factor II activity: 2 uM, 2 h, normalized against untreated control
T1 construct: tissue Rockland Immunochemicals, Inc R214-0050; host or cells: human citrated plasma / whole blood
Description: as §1, with “Plasma” for “137. Sterile human blood in sodium citrate was purchased from the Rockland Immuno- chemicals, Inc (cat #R214-0050, Pottstown, PA 19464, USA). Plasma”
Factor II activity was measured using human plasma immunodepleted of Factor II for the quantitative determination of Factor II activity in citrated plasma based on the prothrombin time (PT) assay, for which an ACLTOP coagulation analyzer manufactured by Instrumentation Laboratory (Bedford, MA, USA) was used. To evaluate the dose-dependent activity of the aptamers in whole blood, human blood samples were collected in citrate-treated tubes. Subsequently, the blood samples were incubated at room temperature for 2 h in both the absence and presence of various concentrations of thrombin aptamers. To measure the Factor II activity using the ACLTOP coagulation analyzer, plasma was separated from the cells by centrifugation at 1500×g for 10 min at 4° C. For the dose-dependent study, concentrations of 1 uM, 2 uM, 3 uM, and 4 uM of AYA1809002 and AYA1809004 were utilized.
as §3

[3] = target: T2, human alpha-thrombin protein (Homo sapiens, UniProt P00734); test: ELISA-based binding assay of biotinylated thrombin aptamers to thrombin protein; details: top nine enriched aptamers, biotinylated; FIG. 2A
T2 construct: Native human alpha-thrombin protein; purchased ThermoFisher Scientific RP-43100; host or cells: native protein
Description: 135. Native human alpha-thrombin protein (ThermoFisher Scientific, cat #RP-43100, Waltham, MA, USA) was added to each well of a 96-well plate (Nunc MaxiSorp flat-bottom 96-well plates, ThermoFisher Scientific, cat #44-2404-21, Waltham, MA, USA) at a concentration of 250 nM in Tris-buffered saline with a volume of 100 μL per well. The plate was then incubated at 4° C. for 16 h to allow the wells to become coated with thrombin. After removing the thrombin solution, the wells were washed and blocked using blocking buffer (20 mM Tris, 150 mM NaCl pH 7.5, 2% BSA, 0.1% Tween 20 and 100 μg/mL of sheared salmon sperm DNA) for a 1 h duration. Next, biotinylated aptamers at the indicated concentrations in a volume of 100 μL were added to the wells in an incubation buffer (20 mM Tris, 150 mM NaCl pH 7.5, 0.1% BSA, 0.1% Tween 20 and 100 μg/mL of sheared salmon sperm DNA) and incubated for 1 h at room temperature. In the competition binding assay, unlabeled aptamers were added along with the biotinylated aptamers, with the unlabeled aptamers being present in a 100-fold excess compared to the biotinylated aptamers. Following three washing steps with wash buffer (20 mM Tris, 150 mM NaCl pH 7.5, 0.1% BSA and 0.1% Tween 20), streptavidin-HRP (ThermoFisher Scientific, cat #21130, Waltham, MA, USA) was added at a dilution of 1:5000 in the incubation buffer. The plate was washed again three times to remove any unbound reagents. The bound biotinylated aptamers were then detected using 3,3′,5,5′-Tetramethylbenzidine (TMB) substrate (ThermoFisher Scientific, cat #34021, Waltham, MA, USA) following the manufacturer's instructions.

rat whole blood = test: Factor II activity, PT, APPT and TT in rat whole blood; format: biochemical
[4] = tested on: modified AYA1809002 and AYA1809004 aptamers; test: Reversal potential of reverse complement on modified aptamers in human citrated plasma; format: biochemical; details: 5 μM reverse complement strand, additional 2-hour incubation
Description: as §2

AYA1809002 = test: Restoration of Factor II activity and PT time with reverse complement in whole blood; format: biochemical, human; details: 1 uM AYA1809002 2 h room temperature in whole blood, then reverse complement; even at 1:1 ratio
Description: 144. Citrated blood collected from a donor was incubated in the absence or presence of 1 uM AYA1809002 at room temperature. After 2 h incubation, the indicated concentration of the reverse complement strand was added to the citrated blood sample. After an additional incubation time of 2 h, plasma was obtained through centrifugation. Factor II activity was measured using human plasma immunodepleted of Factor II for the quantitative determination of Factor II activity in citrated plasma based on the prothrombin time (PT) assay, for which an ACLTOP coagulation analyzer manufactured by Instrumentation Laboratory (Bedford, MA, USA) was used. The PT time was measured using RecombiPlasTin 2G for quantitative determination in human citrated plasma of PT and Fibrinogen on an ACLTOP coagulation analyzer manufactured by Instrumentation Laboratory (Bedford, MA, USA).

clot-bound thrombin = details: in vivo studies, literature; cited from earlier work
[5] = requires refrigeration; cited from earlier work
[6] = target: thrombin over other serine proteases (Homo sapiens, UniProt P00734); details: Table 3, existing solution; cited from earlier work
[7] = Table 3, existing solution; cited from earlier work
[8] = in clinical trials; cited from earlier work
[9] = Table 3, existing solution; cited from earlier work; remark: listed apart in the source

With “TEG-modified AYA1809004: AYA1809004 sequence with /3Sp9/ at the 3′ end (DNA TCGTCAAGGTACGGTTGGGGGGGTGGGTGTTGACGTTGAA; DNA, 3' {Sp9}, backbone and methylation of C not given here)” the “impact of modified aptamer on APTT” value (human citrated plasma [1]) was “slight increase”, the “impact of modified aptamer on PT” value (human citrated plasma [2]) was “slight increase” and the “impact of modified aptamer on Factor II activity” value (from here on “impact … on Factor II activity”) (Factor II activity) was “noticeable inhibition”.

In the case of “AYA1809007: ssDNA thrombin aptamer AGGGGCTCTAGGGTGGGTAGGATGGTGAGACCGCAGCGT (DNA, backbone and methylation of C not given here; further chemistry not fully specified)”, the “increase in APTT time” value (human citrated plasma [1]) is reported as “three-fold increase”, the “increase in PT time” value (human citrated plasma [2]) is reported as “two-fold increases” and the “reduction in Factor II activity” value (Factor II activity) is reported as “more than 75%”. The “binding to immobilized human thrombin (absorbance at 450 nm)” value [3] was “strong binding capabilities”.

With “PEG-modified AYA1809002: AYA1809002 sequence with /3Sp18/ at the 3′ end (DNA GCGGTGTTGCTGGGGTTGGGAGGTTGGAGGAAGCAATCGC; DNA, 3' {Sp18}, backbone and methylation of C not given here)” the “APPT in rat whole blood” value (rat whole blood; dose-dependent manner) was “extend”, the “Factor II activity in rat whole blood” value (rat whole blood; dose-dependent manner) was “inhibit” and the “PT in rat whole blood” value (rat whole blood; dose-dependent manner) was “extend”. For the same substance, the “TT in rat whole blood” value (rat whole blood; dose-dependent manner) was “extend”.

For “reverse complement of AYA1809004: aptamer antidote TTCAACGTCAACACCCACCCCCCCAACCGTACCTTGACGA (DNA, backbone and methylation of C not given here)”, the “reversal of modified aptamers' effects on Factor II activity, PT and APTT” value [4] was “effectively restored”.

With “reverse complement of AYA1809002: aptamer antidote GCGATTGCTTCCTCCAACCTCCCAACCCCAGCAACACCGC (DNA, backbone and methylation of C not given here)” the “neutralization of aptamer effects in rat whole blood” value (rat whole blood; reverse complement strand) was “neutralized the observed effects”, the “reversal of modified aptamers' effects on Factor II activity, PT and APTT” value [4] was “effectively reverses the observed effects” and the “restoration of Factor II activity by reverse complement” value (AYA1809002) was “effectively restored”. The “restoration of PT time by reverse complement” value (AYA1809002) was “effectively restored”.

For heparin, the “inhibition of clot-bound thrombin” value (clot-bound thrombin) is listed as 35%.

With “PEG-modified AYA1809004: AYA1809004 sequence with /3Sp18/ at the 3′ end (DNA TCGTCAAGGTACGGTTGGGGGGGTGGGTGTTGACGTTGAA; DNA, 3' {Sp18}, backbone and methylation of C not given here)” the “impact of modified aptamer on APTT” value (human citrated plasma [1]) was “slight increase”, the “impact of modified aptamer on PT” value (human citrated plasma [2]) was “slight increase” and the “impact … on Factor II activity” value (Factor II activity) was “noticeable inhibition”.

With “cholesterol-modified AYA1809004: AYA1809004 sequence with /3CholTEG/ at the 3′ end; Table 2 misprints the name (DNA TCGTCAAGGTACGGTTGGGGGGGTGGGTGTTGACGTTGAA; DNA, 3' {CholTEG}, backbone and methylation of C not given here)” the “impact of modified aptamer on APTT” value (human citrated plasma [1]) was “no significant impact”, the “impact of modified aptamer on PT” value (human citrated plasma [2]) was “no significant impact” and the “impact … on Factor II activity” value (Factor II activity) was “no significant impact”.

For “HD1: first anti-thrombin DNA aptamer, 15-mer 5′-GGTTGGTGTGGTTGG-3′ binding exosite I (DNA, backbone not given here)”, the “inhibition of clot-bound thrombin” value (clot-bound thrombin) is listed as over 80%.

In the case of dabigatran, the “increase in APTT time” value (human citrated plasma [1]) is given as “three-fold increase”, the “increase in PT time” value (human citrated plasma [2]) is given as “two-fold increases” and the shelf life [5] is given as “shelf life 36 months”. For the same substance, the selectivity [6] was ~300-fold selectivity, the “reduction in Factor II activity” value (Factor II activity) was 80% and the “Onset of Action: peak effect” value [7] was “Peak effect 2-3 hours”. For the same substance, the life-threatening bleeding risks [8] was “bleeding risks (′ 3.3%”, the Half-life [9] was “Half-life of 12-17 hours” and the “Renal Clearance” value [9] was about 80%.
